This is an account of results in PMC3758303 (PLoS ONE, 2013).

Details of data set [1]: method as in Kim et al., unpublished data. The settings on record: ref Kim et al., unpublished data; cited from earlier work.
A short description of data set [2]: WST-1 cell proliferation assay, KAH5RL cells. The class given is cell-based. The settings on record: human. How it is done:
(§1) The WST-1 cell proliferation assay was performed as described previously. Briefly, The cells were plated onto 96-well plates (1×10^3 cells per well) in triplicate and then treated with each reagent at several concentrations for 72 hrs. After treatment, the cells were subjected to the WST-1 cell proliferation assay (Takara Bio, Otsu, Japan) according to the manufacturer’s protocol. This assay is based on the enzymatic cleavage of the tetrazolium salt WST-1 to formazan by cellular mitochondrial dehydrogenases present in viable cells. Therefore, there are […] the value of the WST-1 assay becomes zero. The experiments were performed at least in triplicate. From the assay results, the 50% cytotoxic concentration (CC50) of each reagent was determined.

For data set [3], the system named is HCV-RNA replication in OR6 cells. Nature of the data set: Combination with IFN-α and/or RBV, OR6 RL assay. The class given is cell-based, hepatitis C virus. The note with it: 72 hrs. The text has this:
We examined the anti-HCV activity of N-89 or N-251 in combination with IFN-α using OR6 and ORL8 assay systems. […] However, such an effect was not clear in the OR6 assay (Fig. S4A). […] Therefore, we next examined the combination effect of RBV in the same way as IFN-α using an ORL8 assay. […] Therefore, we further examined the effect of N89 or N-251 in combination with both IFN-α and RBV using an ORL8 assay.
Supplementary file pone.0072519.s004.tif: Figure S4 Anti-HCV effects of N-89 or N-251 in combination with IFN-α and/or RBV on HCV-RNA replication in OR6 cells. […] (A) Effect of N-89 or N-251 in combination with IFN-α on OR6 assay. OR6 cells were treated with N-89 (upper panel) or N-251 (lower panel) in combination with IFN-α for 72 hrs and subjected to RL assay. (B) Effect of N-89 or N-251 in combination with RBV on OR6 assay. OR6 cells were treated with N-89 (upper panel) or N-251 (lower panel) in combination with RBV for 72 hrs and subjected to RL assay. (C) Effect of N-89 or N-251 in combination with IFN-α and RBV on OR6 assay. OR6 cells were treated with N-89 (upper panel) or N-251 (lower panel) in combination with IFN-α and RBV for 72 hrs and subjected to RL assay. (TIF) Click here for additional data file.

Data set [4] can be described thus: WST-1 cell proliferation assay, sORL8 cells. The data set is classed as cell-based. The settings on record: human. How it is done: as §1
Data set [5] concerns HCV-JFH-1 strain (genotype 2a) in HuH-7-derived RSc cells. Nature of the data set: JFH-1 reporter assay system, RSc cells. The note with it: RSc cells inoculated with JR/C5B/BX-2 supernatant, RL assay. The class given is cell-based, hepatitis C virus. The procedure:
HCV infection was performed as described previously. RSc and D7 cells were inoculated with supernatant from RSc cells replicating JR/C5B/BX-2 [29].
Figure 2 Characterization of anti-HCV activities of N-89 and N-251. (A) Schematic gene organization of authentic HCV-RNA (HCV-O/RLGE). The positions of four adaptive mutations - Q1112R, P1115L, E1202G, and K1609E - are indicated by a black star. (B) N-89 and N-251 inhibited authentic HCV-RNA replication. The cells harboring HCV-O/RLGE RNA [19] were treated with N-89 (left panel) and N-251 (right panel) for 72 hrs, followed by real-time LightCycler PCR (black circles in the upper panel) and WST-1 assay (open triangles in the upper panel). The relative value (%) calculated at each point, when the level in non-treated cells was assigned as 100%, is presented here. Data are expressed as the means±standard deviation of triplicate assays. Western blot analysis (lower panels) was performed as described in Fig. 1B. […]
We next examined whether N-89 and N-251 worked in an HCV production system using HCV-JFH-1 strain (genotype 2a). […] To clarify whether anti-HCV activity depends on the difference of genotype or assay model, we evaluated the activities of N-89 and N-251 using RSc-JRN/35B [Ikeda et al., submitted] cells harboring a subgenomic HCV-JFH-1 replicon as an additional assay.

The nature of data set [6]: WST-1 cell proliferation assay, 1B-4R cells. The class given is cell-based. The settings on record: human. The procedure: as §1
Data set [7] has as its system HCV-RNA replication in ORL8 cells. Nature of the data set: Effect of VE on anti-HCV activity, ORL8 RL assay. The data set is classed as cell-based, hepatitis C virus. The settings on record: 72 hrs. How it is done: After treatment, an RL assay of harvested ORL8 cell samples was performed. (B, D, and F) The ratio of RL activity in the presence of VE to the RL activity in the absence of VE. The above ratio was calculated from the data of (A, C, and E). […] (G) Western blot analysis was performed as described in Fig. 1B.
The ORL8 cells were treated with N-89 or IFN-α, and then RL assays were performed at 2 to 72 hrs after the treatment. The relative value (%) calculated at each time point, when the luciferase activity of non-treated cells at 24 hrs was assigned as 100%, is shown. Data are expressed as the means±standard deviation of triplicate assays. […] To evaluate this possibility, we examined the effect of VE on N-89 at the EC90 level in the ORL8 assay.

For data set [8], the system named is authentic 9.6 kb HCV-RNA replication in HCV-O/RLGE cells. Nature of the data set: Quantitative RT-PCR of authentic HCV-RNA in HCV-O/RLGE cells. The settings on record: Hepatitis C virus, 72 hrs, real-time LightCycler PCR. The class given is cell-based. How it is done:
The SI value of each reagent was determined by dividing the CC50 value by the EC50 value.
The RNAs from HCV-RNA replicating cell lines were prepared with an RNeasy extraction kit (Qiagen). The quantitative RT-PCR analysis for HCV-RNA was performed using a real-time LightCycler PCR (Roche Diagnostics, Basel, Switzerland) as described previously, [20].
The genome-length HCV-RNA used in the assay systems described above contains three non-natural elements: RL, neomycin phosphotransferase, and an internal ribosomal entry site of encephalomyocarditis virus. To exclude the possibility that the anti-HCV activity of N-89 or N-251 was due to the inhibition of these three exogenous elements, we examined the anti-HCV activities of N-89 and N-251 using the authentic 9.6 kb HCV-RNA-replicating HCV-O/RLGE cells, which were developed by the introduction of in vitro synthesized HCV-O/RLGE RNA (Fig. 2A) into OR6c cured cells.
Figure 2 Characterization of anti-HCV activities of N-89 and N-251. (A) Schematic gene organization of authentic HCV-RNA (HCV-O/RLGE). The positions of four adaptive mutations - Q1112R, P1115L, E1202G, and K1609E - are indicated by a black star. […] The relative value (%) calculated at each point, when the level in non-treated cells was assigned as 100%, is presented here. Data are expressed as the means±standard deviation of triplicate assays. […]

A short description of data set [9]: WST-1 cell proliferation assay, sORL11 cells. The note with it: human. The data set is classed as cell-based. The procedure:
as §1

A short description of data set [10]: WST-1 cell proliferation assay, ORL8 cells. The data set is classed as cell-based. The settings on record: human. The procedure:
as §1

Regarding `C1CCCCCC2(CCCCC1)OOCCCOO2` [N-89, 1,2,6,7-Tetraoxaspiro[7.11]nonadecane], in data set [1], the blood concentration entry is “approximately 1 µM”. The CC50 at 72 h was found to be 2500 nM in [2]; 1100 nM in [4]; 9300 nM in data set [6]; 1700 nM in data set [9]; 2300 nM in [10]. Also, the “anti-HCV effect in combination with IFN-α” value in data set [3] is “not clear”. Besides, the “anti-HCV effect in combination with RBV” value in data set [3] was “additive anti-HCV effect”. The “anti-HCV activity for the HCV-JFH-1 strain” value in data set [5] was “did not show anti-HCV activity”. For the same molecule, the “VE 10μM(+) / VE 10μM(-) ratio of RL activity” value in data set [7] (reagent at expected EC90, Fig. 5B (control 3.0)) was 16. In data set [8], this molecule yielded a half-maximal effective concentration (EC50) of 2000 nM.

With `OCCCCCCC1COOC2(CCCCCCCCCCC2)OOC1` [N-251, 6-(1,2,6,7-tetraoxaspiro[7.11]nonadec-4-yl)hexan-1-ol], the blood concentration entry in data set [1] was “approximately 1 µM”. Also, the half-maximal cytotoxic concentration (CC50) at 72 h in data set [2] was determined as 2800 nM; in data set [4] it was 4100 nM; in data set [6] it was 3800 nM; in [9], 3100 nM; in data set [10], 1300 nM. Further, the “anti-HCV effect in combination with IFN-α” value in data set [3] is “not clear”. For the same molecule, the “anti-HCV effect in combination with RBV” value in [3] is reported as “additive anti-HCV effect”. In addition, in [5], the “anti-HCV activity for the HCV-JFH-1 strain” value was “did not show anti-HCV activity”. For the same molecule, in data set [7] (reagent at expected EC90, Fig. 5D (control 2.3)), the “VE 10μM(+) / VE 10μM(-) ratio of RL activity” value worked out at 13. For the same molecule, a half-maximal response in data set [8] (EC50) required 1600 nM.
